Experiments:
[1] = test system: healthy donor PBMCs; assay: Cell viability of healthy donor PBMCs on antagonist treatment (data not shown); assay type: cell-based, human
Description: Supplementary methods and results
Annexin V viability analysis
Cells were washed with Annexin V binding buffer (BioLegend) then incubated with Alexa Fluor 647 – conjugated Annexin V (BioLegend) at room temperature for 15 minutes. For A2AAR and A2BAR expression profiling, cells were washed with BD Perm/Wash then incubated with BD CytoFix/CytoPerm at 4°C for 20 minutes. The cells were then washed and stained with PE-conjugated A2AAR mouse antibody (Clone 7F6-G5-A2; Santa Cruz Biotechnology, sc-32261 PE) at room temperature for 30 minutes. After washing twice to remove most A2AAR antibody possible, goat A2BAR primary antibody (Clone PA5-18422; Thermo Fisher Scientific) was incubated at 4°C overnight. The cells were subsequently washed and stained with Alexa Fluor 488-conjugated anti-goat secondary antibody (Thermo Fisher Scientific) at room temperature for 1 hour. The cells were then washed with FC buffer twice before acquiring on NovoCyte. A2AAR and A2BAR fluorescence minus one (FMO) staining were also prepared. For differential expression of ADO ectonucleotidases, day five patient-derived sarcoma spheroids were digested and stained for CD45, CD73 and CD39 using the same procedures as cell surface staining (Supplementary Table 1).
Public database bioinformatic analysis […]

[2] = test system: healthy donor T cells in MPNST patient-derived sarcoma spheroid; assay: Proliferation assay with CD73-expressing patient-derived sarcoma (MPNST) spheroid; assay type: cell-based, human; settings: antagonist 12 µM, 3 days, endogenous adenosine, n=5 healthy donors
Description: A malignant peripheral nerve sheath tumor (MPNST) patient-derived sarcoma cell line was used to grow spheroid by seeding 1×10^4 cells per well in a 96-well ultra-low attachment plate (Thermo Fisher Scientific) with DMEM-F12 media containing 20% FBS and 1% PS for 5 days. 1×10^5 CSFE-labeled healthy PBMCs, ratio of 10:1, were added to the CD73 expressing, adenosine-producing spheroid at day five. Similar to the proliferation assay with exogenous ADO, CD3/CD28 beads at 1:4 ratio and IL-2 at 100 IU/mL were added. A2BAR antagonism treatment at 12 μM was added at the same day.
Figure 5 Rescue of lymphocyte proliferation in sarcoma spheroids by A2BAR antagonism. Relative proliferation of: (A) CD45RA- CD4 T cells, (B) CD45RA+CD4 T cells, (C) CD45RA- CD8 T cells and (D) CD45RA+ CD8 T cells after antagonist 12 µM treatment for 3 days in MPNST patient-derived sarcoma spheroid. (n=5 healthy donors) Box plots with minimum, first quartile, median, third quartile, and maximum are presented. Unpaired and non-parametric statistical analysis—Mann-Whitney test was performed against untreated control with *p<0.05, **p<0.01, ***p<0.001, and ****p<0.0001. (E) Representative CSFE dilution of CD45RA+ CD8 T cells. CD45RA expression differentiates naïve and effector T cells from central and effector memory T cells. MPNST, malignant peripheral nerve sheath tumors; UPS, undifferentiated pleomorphic sarcoma.

[3] = target: T1, human A2AAR (Homo sapiens, UniProt P29274); assay: Radioligand binding, human A2AAR ([3H]ZM241385, transfected HeLa cells); settings: displacement of [3H]ZM241385, human HeLa cells, n=3, racemic mixtures; read-out: Ki hA2A
T1 construct: expressed in transfected cells; host or cells: HeLa
Description: The affinity and selectivity profiles of the ligands obtained was studied in vitro, radioligand binding assays, at the four human specific ARs subtypes, using experimental protocols previously described.[28–30] All ligands were prepared and tested as racemic mixtures. […] Non-specific binding was determined in the presence of R-PIA 10 µM for A1AR, NECA 50 µM for A2AAR, NECA 400 μΜ for A2BAR and R-PIA 100 μΜ for A3AR.

T1 sequence (P29274 whole entry): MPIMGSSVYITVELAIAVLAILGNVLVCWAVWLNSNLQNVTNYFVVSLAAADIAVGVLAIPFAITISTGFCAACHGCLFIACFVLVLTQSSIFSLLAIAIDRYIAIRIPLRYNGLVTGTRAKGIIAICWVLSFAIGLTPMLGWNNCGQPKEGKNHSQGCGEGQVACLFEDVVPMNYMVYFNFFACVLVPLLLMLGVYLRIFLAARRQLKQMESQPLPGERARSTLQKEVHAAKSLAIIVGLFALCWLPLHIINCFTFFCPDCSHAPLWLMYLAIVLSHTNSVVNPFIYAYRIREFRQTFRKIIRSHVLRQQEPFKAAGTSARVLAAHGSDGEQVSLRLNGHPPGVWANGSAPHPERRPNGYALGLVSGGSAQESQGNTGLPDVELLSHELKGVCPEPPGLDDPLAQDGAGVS

SMILES	Toxicity / cell viability [1]	Rescue of naïve and effector (CD45RA+) CD8 T cell proliferation in adenosine-producing sarcoma spheroids [2]	Ki [3]
CC1=C(C(=O)OC(C)C)C(c2ccco2)n2c(nc3ccccc32)N1 (stereo not drawn) [ISAM-140, isopropyl 4-(furan-2-yl)−2-methyl-1,4-dihydrobenzo[4 5] imidazo[1,2 a]pyrimidine-3-carboxylate]	non-toxic and even improved cell viability		
CC1=C(C(=O)OC(C)C)C(c2ccco2)n2c(nc3ccccc32)N1Cc1ccccc1F (stereo not drawn) [ISAM-R56A]		significantly rescued	> 1 µM

Reference: publication PMC9115112, “A2B adenosine receptor antagonists rescue lymphocyte activity in adenosine-producing patient-derived cancer models” (Journal for Immunotherapy of Cancer, 2022)
